For orientation: inhibition means the share of the control response that was lost under treatment. For orientation: IC50 means the concentration that gives 50% inhibition.

Read-outs that look alike come from different tables or passages of the source.

The text below walks through data of US20110015226A1, “Treatment of Energy Utilization Disease” (SUMMIT CORPORATION PLC, priority 2008, published 2011).

Common to all, as to format: biochemical
Assay [1] addresses T1, N-acetyl-β-D-glucosaminidase (A. oryzae) (Aspergillus oryzae, UniProt Q8J2T0).
T1 construct: purchased Sigma
The experiment in a line: Glycosidase inhibition: N-acetyl-β-D-glucosaminidase (A. oryzae). The note with it: compounds tested at 0.8 mM. The text has this: (§1) The results tabulated below were obtained using commercially available glycosidases and p-nitrophenyl-substrates using standard methods described for example by Watson et al (1997) Phytochemistry 46 255-259. All enzymes and substrates were bought from Sigma. Enzyme and substrate solutions were made using sodium phosphate buffers at the pH optima values. The enzymes used were α-D-glucosidase Saccharomyces cerevisiae, Bacillus stearothermophilus, Oryzae sativa), β-D-glucosidase (Almond), α-D-mannosidase (Jack bean), α-D-galactosidase (Green coffee beans), β-D-galactosidase (Bovine liver), α-L-fucosidase (Bovine kidney), N-acetyl-β-D-glucosaminidase (Bovine kidney, Jack bean, Aspergillus oryzae), Naringinase (Penicillium decumbens) and amyloglucosidase (Aspergillus niger). All enzymes were used with the appropriate p-nitrophenyl substrates (5 mM). Amyloglucosidase activity was measured using amylopectin (0.1%) (Merck) mixed with sodium phosphate buffer, pH 4.5 in a glass bottle, and healed in a boiling water bath for 20 minutes to dissolve with released glucose measured using ‘Trinder’ glucose detection solution (Sigma).
(§2) All enzymes and para-nitrophenyl substrates were purchased from Sigma, with the exception of beta-mannosidase which came from Megazyme. Enzymes were assayed at 27° C. in 0.1M citric acid/0.2M disodium hydrogen phosphate buffers at the optimum pH for the enzyme. The incubation mixture consisted of 10 μl enzyme solution, 10 μl of 1 mg/ml aqueous solution of extract and 50 μl of the appropriate 5 mM para-nitrophenyl substrate made up in buffer at the optimum pH for the enzyme. The reactions were stopped by addition of 70 μl 0.4M glycine (pH 10.4) during the exponential phase of the reaction, which had been determined at the beginning using uninhibited assays in which water replaced inhibitor. Final absorbances were read at 405 nm using a Versamax microplate reader (Molecular Devices). Assays were carried out in triplicate, and the values given are means of the three replicates per assay. (See Watson, A. A., Nash, R. J., Wormald, M. R., Harvey, D. J., Dealler, S., Lees, E., Asano, N., Kizu, H., Kato, A., Griffiths, R. C., Cairns, A. J. and Fleet, G. W. J. (1997). Glycosidase-inhibiting pyrrolidine alkaloids from Hyacinthoides non-scripta. Phytochemistry 46 (2): 255-259.)

The target of assay [2] is T2, α-L-fucosidase Bovine kidney (Bos taurus, UniProt Q2KIM0).
T2 construct: α-L-fucosidase (Bovine kidney); purchased Sigma; host or cells: bovine kidney
T2 sequence (Q2KIM0 23-468): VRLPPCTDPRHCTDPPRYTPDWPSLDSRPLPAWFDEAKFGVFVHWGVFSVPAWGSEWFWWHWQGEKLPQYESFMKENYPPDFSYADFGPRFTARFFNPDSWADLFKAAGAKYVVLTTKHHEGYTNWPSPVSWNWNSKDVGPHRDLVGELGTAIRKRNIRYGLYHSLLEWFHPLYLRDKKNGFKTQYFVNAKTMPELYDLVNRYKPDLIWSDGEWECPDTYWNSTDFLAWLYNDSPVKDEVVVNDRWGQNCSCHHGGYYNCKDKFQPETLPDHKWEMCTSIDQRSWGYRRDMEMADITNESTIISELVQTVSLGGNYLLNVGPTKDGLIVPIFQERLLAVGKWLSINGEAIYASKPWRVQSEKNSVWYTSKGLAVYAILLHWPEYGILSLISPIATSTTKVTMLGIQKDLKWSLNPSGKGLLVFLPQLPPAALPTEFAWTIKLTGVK
The experiment in a line: Glycosidase inhibition: α-L-fucosidase Bovine kidney. Conditions: compounds tested at 0.8 mM.

Assay [3] deals with T3, Amyloglucosidase Aspergillus niger (Aspergillus niger, UniProt P69328).
T3 construct: purchased Sigma
T3 sequence (P69328 25-640): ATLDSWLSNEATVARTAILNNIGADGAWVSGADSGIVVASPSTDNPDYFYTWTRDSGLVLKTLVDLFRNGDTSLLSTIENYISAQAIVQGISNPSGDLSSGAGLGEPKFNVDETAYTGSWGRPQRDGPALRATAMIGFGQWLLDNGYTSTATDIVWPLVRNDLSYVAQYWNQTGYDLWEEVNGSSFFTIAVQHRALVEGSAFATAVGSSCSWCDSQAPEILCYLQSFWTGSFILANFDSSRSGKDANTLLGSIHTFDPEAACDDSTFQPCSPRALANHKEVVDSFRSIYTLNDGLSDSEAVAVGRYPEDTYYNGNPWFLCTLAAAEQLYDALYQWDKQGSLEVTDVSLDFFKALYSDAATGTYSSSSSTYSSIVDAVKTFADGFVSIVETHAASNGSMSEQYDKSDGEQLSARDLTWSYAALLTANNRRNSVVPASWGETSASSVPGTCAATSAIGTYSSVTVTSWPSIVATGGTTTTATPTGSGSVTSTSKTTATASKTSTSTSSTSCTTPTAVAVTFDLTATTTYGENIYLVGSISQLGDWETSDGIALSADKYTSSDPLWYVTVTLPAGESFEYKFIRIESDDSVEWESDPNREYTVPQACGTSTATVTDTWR
The experiment in a line: Glycosidase inhibition: Amyloglucosidase Aspergillus niger. Conditions: compounds tested at 0.8 mM.
Excerpt: as §1, §2

Assay [4] concerns rabbit digestive disaccharidases. The experiment in a line: Rabbit digestive disaccharidases (summary statement). The note with it: at 0.8 mM. Here is the method: Sucrose (8.3 mM), maltose (5 mM) and isomaltose (6.3 mM) substrates were made using 0.2 M Macllvaine (citrate-phosphate) buffer, pH 6.0. The glucose detection reagent was prepared according to the supplier's instructions (Megazyme Ltd). Linearity of the timecourse of the reaction between the glucose detection reagent and glucose was tested using a series of glucose dilutions.
The method for preparation of mammalian small intestine mucosal disaccharidases was based on Griffiths (1998), omitting ammonium sulphate fractionation steps. The small intestine was dissected out of a female wild rabbit, and opened longitudinally using a scalpel. The mucosal layer was scraped off using the edge of a clean microscope slide, and placed into 3 ml of dH2O. The mucosal layer suspension was centrifuged at around 1000 rpm for 30 seconds to sediment tissue debris. The supernatant ([…]) was removed, and centrifuged again at 3500 rcf for 1 minute to remove fine particulates from suspension. The supernatant was diluted to give 0.2-0.25 mg/ml protein and stored at −30° C.
Enzyme assays were carried out using 5-15 μl of enzyme preparation, 5 μl of test compound (or dH2O for controls) and 15-25 μl of substrate solution. Reactions were covered using a sheet of plate sealing film, and incubated at 37° C. for 60 minutes. Glucose (from disaccharide hydrolysis) was quantified by adding 200 μl of glucose detection reagent and incubating the reactions for a further twenty-five minutes. Absorbance was measured at 510 nm against control blanks.

Assay [5] has as its target T4, β-Glucuronidase Bovine liver (Bos taurus, UniProt A3KMY8).
T4 construct: The assay involved the use of Bovine liver β-glucuronidase; purchased Sigma; host or cells: bovine liver
T4 sequence (A3KMY8 1-652): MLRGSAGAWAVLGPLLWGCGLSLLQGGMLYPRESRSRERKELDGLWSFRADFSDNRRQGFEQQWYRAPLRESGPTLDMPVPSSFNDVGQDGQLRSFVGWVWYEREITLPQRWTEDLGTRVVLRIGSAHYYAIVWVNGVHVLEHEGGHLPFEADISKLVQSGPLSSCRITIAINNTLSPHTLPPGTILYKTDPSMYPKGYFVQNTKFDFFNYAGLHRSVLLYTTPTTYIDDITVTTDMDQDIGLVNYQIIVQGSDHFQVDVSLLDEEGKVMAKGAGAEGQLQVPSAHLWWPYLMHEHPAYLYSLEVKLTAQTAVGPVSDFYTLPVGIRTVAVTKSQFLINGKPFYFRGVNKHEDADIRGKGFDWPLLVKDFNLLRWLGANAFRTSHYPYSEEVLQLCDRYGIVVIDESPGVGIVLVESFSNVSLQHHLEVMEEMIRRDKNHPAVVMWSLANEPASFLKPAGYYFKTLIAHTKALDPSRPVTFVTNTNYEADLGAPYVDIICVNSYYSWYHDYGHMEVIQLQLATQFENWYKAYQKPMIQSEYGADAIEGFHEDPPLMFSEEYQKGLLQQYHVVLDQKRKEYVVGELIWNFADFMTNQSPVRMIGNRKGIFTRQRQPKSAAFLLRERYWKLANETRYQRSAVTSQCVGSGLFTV
The experiment in a line: Glycosidase inhibition: β-Glucuronidase Bovine liver.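 On all read-outs here: bovine liver β-glucuronidase acting on p-nitrophenyl β-D-glucuronide substrate in citric acid/disodium hydrogen phosphate buffer, pH 5.0, 27 °C, mean of triplicate runs.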 The note with it: for inhibition at 800 µM: compounds tested at 0.8 mM.

Assay [6] concerns the target T5, α-D-galactosidase Green coffee bean (Coffea arabica, UniProt Q42656).
T5 construct: α-D-galactosidase (Green coffee beans); purchased Sigma; host or cells: green coffee beans
Nature of the assay: Glycosidase inhibition: α-D-galactosidase Green coffee bean. Conditions: compounds tested at 0.8 mM.
Excerpt: as §1, §2

Setting [7] is: read-out: IC50 against mammalian glucuronidase.
Where [8] appears, read: pH 5.0, 27° C., p-nitrophenyl β-D-glucuronide, read-out: IC50, β-Glucuronidase Bovine liver.

T5 sequence (Q42656 16-378): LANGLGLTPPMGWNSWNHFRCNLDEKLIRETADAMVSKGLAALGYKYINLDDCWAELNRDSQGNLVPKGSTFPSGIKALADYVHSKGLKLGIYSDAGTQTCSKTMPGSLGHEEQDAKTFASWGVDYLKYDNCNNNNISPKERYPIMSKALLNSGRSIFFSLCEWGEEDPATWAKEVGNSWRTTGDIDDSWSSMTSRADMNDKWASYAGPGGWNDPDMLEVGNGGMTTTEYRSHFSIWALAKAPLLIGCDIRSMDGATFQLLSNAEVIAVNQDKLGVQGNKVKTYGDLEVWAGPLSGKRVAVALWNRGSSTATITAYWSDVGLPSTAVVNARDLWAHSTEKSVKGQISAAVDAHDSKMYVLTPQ
T1 sequence (Q8J2T0 97-600): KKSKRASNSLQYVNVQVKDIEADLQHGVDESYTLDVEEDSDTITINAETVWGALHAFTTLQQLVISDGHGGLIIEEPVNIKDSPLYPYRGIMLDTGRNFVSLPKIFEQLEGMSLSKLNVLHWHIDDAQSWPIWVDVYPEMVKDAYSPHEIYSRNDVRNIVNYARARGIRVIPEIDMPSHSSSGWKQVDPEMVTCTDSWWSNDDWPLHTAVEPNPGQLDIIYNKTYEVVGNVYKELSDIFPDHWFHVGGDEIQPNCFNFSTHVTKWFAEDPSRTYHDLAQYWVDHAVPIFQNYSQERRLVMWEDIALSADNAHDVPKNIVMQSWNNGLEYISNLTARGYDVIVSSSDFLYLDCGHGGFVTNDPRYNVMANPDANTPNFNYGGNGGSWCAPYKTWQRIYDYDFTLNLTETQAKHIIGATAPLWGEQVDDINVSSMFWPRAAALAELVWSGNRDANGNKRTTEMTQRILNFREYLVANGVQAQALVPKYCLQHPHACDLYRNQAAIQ

`O=C(O)[C@H]1NC[C@H](O)[C@@H](O)[C@@H]1O` [Compound G2, 2S,3R,4R,5S-trihydroxypiperidine-2-carboxylic acid]: the inhibition at 800 µM in assay [1] was below 10%; in assay [2], below 10%; in assay [3], below 10%; in assay [5], 90%; in assay [6], below 10%. In addition, the “inhibition of the disaccharidases” value in assay [4] was “no inhibition”. Moreover, in assay [5] (setting [7]), the IC50 turned out to be 107 µM.
For the compound `O=C(O)CN1[C@H](CO)[C@@H](O)[C@H](O)[C@H]1CO` [Compound S2, 2-((2R,3R,4R,5R)-3,4-Dihydroxy-2,5-bis(hydroxymethyl)pyrrolidin-1-yl)acetic acid], the inhibition at 800 µM in assay [1], in assay [2], in assay [3] and in assay [6] was below 50% throughout. Further, in assay [4], the “inhibition of the disaccharidases” value is “no inhibition”. Further, in assay [5] (setting [8]), the IC50 turned out to be 507 µM.
Take `O=C(O)CCN1C[C@H](O)[C@@H](O)[C@H](O)[C@H]1CO` [Compound T1]: the inhibition at 800 µM in assay [1] was below 50%; in assay [2], below 50%; in assay [3] it was 53%; in assay [6], below 50%. Moreover, in assay [5] (setting [7]), the IC50 was 50 µM.
Consider `CCCCOC(=O)[C@@H]1[C@@H](O)[C@H](O)[C@@H](O)CN1CCCC` [Compound T2, (2S,3R,4R,5S)-Butyl 1-butyl-3,4,5-trihydroxypiperidine-2-carboxylate], for which the inhibition at 800 µM in assay [1], in assay [2], in assay [3] and in assay [6] was below 50% throughout. Besides, in assay [4], the “inhibition of the disaccharidases” value is “no inhibition”. In assay [5] (setting [8]), the IC50 stood at 280 µM.
Consider `OC[C@H]1NC[C@H](O)[C@@H](O)[C@@H]1O` [DNJ, 1-deoxynojirimycin, reference compound], for which the inhibition at 800 µM in assay [1] is below 10%; in assay [2] it was below 10%; in assay [3], 32%; in assay [5], below 10%; in assay [6] it was below 10%.
